Data taken from patent US10899710B2, “Pyridines and their use in the treatment of cancer” (The United States of America, as represented by the …, priority 2015, dated 2021).
Structures can show the parent of a compound that is named as a salt.

Assays:
Assay type in all cases: cell-based
[1] = system: FaDu cell line; test: Cell viability inhibition, FaDu cell line; conditions: Homo sapiens, Biological Example 4, 72 hrs
Procedure: (§1) Cell lines were plated 2000 cells/well in 96-well black optical plates in the presence of 10% FBS media containing 25 nM selenite. The following day cells were treated with various concentrations of the compound of Example 1 (0.1% DMSO final) and incubated for 72 hrs. After the incubation Cell-Quanti Blue reagent was added to each well and incubated for additional 3 hrs. Fluorescence was read ex:530 nm/em:590 nm, and percent of viability was determined using DMSO vehicle and no cell (blank) controls.
Using the assays described in Biological Example 1 to assess inhibition of recombinant TrxR1 and GR, the following IC50 values were obtained for the examples described herein. Further, following the protocol described in Biological Example 2, the following IC50 values were obtained for inhibition of cell viability using the FaDu cell line.

[2] = system: CCRF-CEM; test: Growth inhibition GI50, CCRF-CEM; conditions: Homo sapiens, Leukemia
Procedure: as §1
(§2) Further results obtained in similar experiments were as indicated below (GI50 refers to concentration of compound yielding 50% growth inhibition; E denotes an exponent to the base 10).

[3] = system: HL-60(TB); test: Growth inhibition GI50, HL-60(TB); conditions: Homo sapiens, Leukemia
Procedure: as §1, §2

[4] = system: K-562; test: Growth inhibition GI50, K-562; conditions: Homo sapiens, K562, Leukemia
Procedure: as §1, §2

[5] = system: MOLT-4; test: Growth inhibition GI50, MOLT-4; conditions: Homo sapiens, Leukemia
Procedure: as §1, §2

[6] = system: RPMI-8226; test: Growth inhibition GI50, RPMI-8226; conditions: Homo sapiens, Leukemia
Procedure: as §1, §2

[7] = system: SR; test: Growth inhibition GI50, SR; conditions: Homo sapiens, Leukemia
Procedure: as §1, §2

[8] = system: NCI-H226; test: Growth inhibition GI50, NCI-H226; conditions: Homo sapiens, Non-Small Cell Lung Cancer
Procedure: as §1, §2

[9] = system: NCI-H23; test: Growth inhibition GI50, NCI-H23; conditions: Homo sapiens, Non-Small Cell Lung Cancer
Procedure: as §1, §2

[10] = system: NCI-H322M; test: Growth inhibition GI50, NCI-H322M; conditions: Homo sapiens, Non-Small Cell Lung Cancer
Procedure: as §1, §2

[11] = system: NCI-H460; test: Growth inhibition GI50, NCI-H460; conditions: Homo sapiens, Non-Small Cell Lung Cancer
Procedure: as §1, §2

[12] = system: COLO 205; test: Growth inhibition GI50, COLO 205; conditions: Homo sapiens, Colon Cancer
Procedure: as §1, §2

[13] = system: HCC-2998; test: Growth inhibition GI50, HCC-2998; conditions: Homo sapiens, Colon Cancer
Procedure: as §1, §2

[14] = system: HT29; test: Growth inhibition GI50, HT29; conditions: Homo sapiens, HT-29, Colon Cancer
Procedure: as §1, §2

[15] = system: KM12; test: Growth inhibition GI50, KM12; conditions: Homo sapiens, Colon Cancer
Procedure: as §1, §2

[16] = system: SW-620; test: Growth inhibition GI50, SW-620; conditions: Homo sapiens, Colon Cancer
Procedure: as §1, §2

[17] = system: SF-295; test: Growth inhibition GI50, SF-295; conditions: Homo sapiens, CNS Cancer
Procedure: as §1, §2

[18] = system: SF-539; test: Growth inhibition GI50, SF-539; conditions: Homo sapiens, CNS Cancer
Procedure: as §1, §2

[19] = system: SNB-19; test: Growth inhibition GI50, SNB-19; conditions: Homo sapiens, CNS Cancer
Procedure: as §1, §2

[20] = system: U251; test: Growth inhibition GI50, U251; conditions: Homo sapiens, U-251, CNS Cancer
Procedure: as §1, §2

[21] = system: LOX IMVI; test: Growth inhibition GI50, LOX IMVI; conditions: Homo sapiens, Melanoma
Procedure: as §1, §2

[22] = system: MALME-3M; test: Growth inhibition GI50, MALME-3M; conditions: Homo sapiens, Melanoma
Procedure: as §1, §2

[23] = system: SK-MEL-2; test: Growth inhibition GI50, SK-MEL-2; conditions: Homo sapiens, Melanoma
Procedure: as §1, §2

[24] = system: UACC-62; test: Growth inhibition GI50, UACC-62; conditions: Homo sapiens, Melanoma
Procedure: as §1, §2

[25] = system: OVCAR-3; test: Growth inhibition GI50, OVCAR-3; conditions: Homo sapiens, Ovarian Cancer
Procedure: as §1, §2

[26] = system: OVCAR-4; test: Growth inhibition GI50, OVCAR-4; conditions: Homo sapiens, Ovarian Cancer
Procedure: as §1, §2

[27] = system: OVCAR-5; test: Growth inhibition GI50, OVCAR-5; conditions: Homo sapiens, Ovarian Cancer
Procedure: as §1, §2

[28] = system: OVCAR-8; test: Growth inhibition GI50, OVCAR-8; conditions: Homo sapiens, Ovarian Cancer
Procedure: as §1, §2

[29] = system: NCI/ADR-RES; test: Growth inhibition GI50, NCI/ADR-RES; conditions: Homo sapiens, Ovarian Cancer
Procedure: as §1, §2

[30] = system: ACHN; test: Growth inhibition GI50, ACHN; conditions: Homo sapiens, Renal Cancer
Procedure: as §1, §2

[31] = system: RXF 393; test: Growth inhibition GI50, RXF 393; conditions: Homo sapiens, Renal Cancer
Procedure: as §1, §2

[32] = system: TK-10; test: Growth inhibition GI50, TK-10; conditions: Homo sapiens, Renal Cancer
Procedure: as §1, §2

[33] = system: DU-145; test: Growth inhibition GI50, DU-145; conditions: Homo sapiens, Prostate Cancer
Procedure: as §1, §2

[34] = system: MCF7; test: Growth inhibition GI50, MCF7; conditions: Homo sapiens, Breast Cancer
Procedure: as §1, §2

[35] = system: MDA-MB-231/ATCC; test: Growth inhibition GI50, MDA-MB-231/ATCC; conditions: Homo sapiens, Breast Cancer
Procedure: as §1, §2

[36] = system: HS 578T; test: Growth inhibition GI50, HS 578T; conditions: Homo sapiens, Breast Cancer
Procedure: as §1, §2

[37] = system: BT-549; test: Growth inhibition GI50, BT-549; conditions: Homo sapiens, Breast Cancer
Procedure: as §1, §2

[38] = system: T-47D; test: Growth inhibition GI50, T-47D; conditions: Homo sapiens, T47D, Breast Cancer
Procedure: as §1, §2

[39] = system: MDA-MB-468; test: Growth inhibition GI50, MDA-MB-468; conditions: Homo sapiens, Breast Cancer
Procedure: as §1, §2

COc1ccc([N+](=O)[O-])c(S(=O)(=O)c2ccc(Cl)cc2)n1 [Example 1, 2-((4-Chlorophenyl)sulphonyl)-6-methoxy-3-nitropyridine Hydrochloride]
IC50 [1]: 2.99 µM
GI50 [2]: 2.93 µM
GI50 [3]: 6.81 µM
GI50 [4]: 3.02 µM
GI50 [5]: 3.59 µM
GI50 [6]: 3.38 µM
GI50 [7]: 2.99 µM
GI50 [8]: 10.2 µM
GI50 [9]: 4.58 µM
GI50 [10]: 20.4 µM
GI50 [11]: 14.6 µM
GI50 [12]: 1.96 µM
GI50 [13]: 8.38 µM
GI50 [14]: 3.34 µM
GI50 [15]: 14 µM
GI50 [16]: 2.06 µM
GI50 [17]: 13.1 µM
GI50 [18]: 3.39 µM
GI50 [19]: 13 µM
GI50 [20]: 8.69 µM
GI50 [21]: 1.98 µM
GI50 [22]: 2 µM
GI50 [23]: 11.4 µM
GI50 [24]: 3.56 µM
GI50 [25]: 2.33 µM
GI50 [26]: 2.32 µM
GI50 [27]: 3.13 µM
GI50 [28]: 3.67 µM
GI50 [29]: 4.93 µM
GI50 [30]: 2.08 µM
GI50 [31]: 4.45 µM
GI50 [32]: 3.57 µM
GI50 [33]: 9.63 µM
GI50 [34]: 2.24 µM
GI50 [35]: 2.83 µM
GI50 [36]: 13 µM
GI50 [37]: 2.75 µM
GI50 [38]: 2.12 µM
GI50 [39]: 1.93 µM
